Here are results for nine compounds from PMC9631887 (ACS Omega, 2022).

Each structure is given as a SMILES string.

The nature of one data set: PAMPA-GIT. Conditions: for classification / experimental fraction absorption: PAMPA-GIT; for classification: fraction absorption classification; for Papp at 8 h, 500 μM: PAMPA. On the technique in general: The PAMPA barrier holds no transporters, so it reflects passive diffusion.
For data set [1] the following is noted: QC standards; ref Zhu et al.[29]; cited from earlier work.

Turning to `CC(C)NCC(O)COc1ccc(CC(N)=O)cc1` (stereo not shown) [atenolol], in “PAMPA-GIT”, the classification entry was “low (Low, 0–29% Fa)”.
In the case of `Cn1c(=O)c2c(ncn2C)n(C)c1=O` [caffeine], in “PAMPA-BBB”, the classification result is listed as “BBB– (Pe values <1.57 were classified as nonpermeable (BBB−))”.
With `CO/N=C(\C(=O)N[C@@H]1C(=O)N2C(C(=O)O)=C(CSc3nc(=O)c(=O)[nH]n3C)CS[C@H]12)c1csc(N)n1` [ceftriaxone], the literature fraction absorption in data set [1] is reported as 1%.
With `O=c1ccc2ccccc2o1` [coumarin], in the data set “PAMPA-GIT”, the Papp – broadly, a coefficient for how fast a substance crosses the barrier – at 8 h, 500 μM came to 27.9 ×10⁻⁶ cm/s; the experimental fraction absorption amounted to 100.00%; the classification result is “high (High, 70–100% Fa)”.
Take `O=C(O)Cc1ccccc1Nc1c(Cl)cccc1Cl` [diclofenac]: in data set [1], the literature fraction absorption was 100%. Besides, in the data set “PAMPA-GIT”, the Papp at 8 h, 500 μM stood at 14 ×10⁻⁶ cm/s; the experimental fraction absorption stood at 100.00%; the classification result was “high (High, 70–100% Fa)”.
As for `CCn1cc(C(=O)O)c(=O)c2cc(F)c(N3CCNCC3)nc21` [enoxacin], the classification result in the data set “PAMPA-BBB” is recorded as “BBB– (Pe values <1.57 were classified as nonpermeable (BBB−))”.
`C[C@]12CCC(=O)C=C1CC[C@@H]1[C@@H]2[C@@H](O)C[C@@]2(C)[C@H]1CC[C@]2(O)C(=O)CO` [hydrocortisone] registered an experimental fraction absorption in “PAMPA-GIT” of 100.00%.
`CCn1cc(C(=O)O)c(=O)c2cc(F)c(N3CCNCC3)cc21` [norfloxacin]: in “PAMPA-GIT”, the experimental fraction absorption is listed as 51.39% and the classification result was “intermediate (Intermediate, 30–69% Fa)”.
Regarding `CNC(=C[N+](=O)[O-])NCCSCc1ccc(CN(C)C)o1` [ranitidine], in the data set “PAMPA-GIT”, the experimental fraction absorption was 49.75% and the classification entry is “intermediate (Intermediate, 30–69% Fa)”.
